Measured values reported in patent publication US20230391752A1, “PYRROLIDINE-3-CARBOXAMIDE DERIVATIVES AND RELATED USES” (Chulalongkorn University, priority 2020, published 2023).

How the values were obtained:
[1] = system: HBV; assay: In vitro anti-HBV activity in HepG2.2.15 cell line (intracellular HBV DNA by qPCR at 1 μM); format: cell-based; conditions: Hepatitis B virus, 144 h; HepG2.2.15 cells, 1 μM compound, 6 days, intracellular HBV DNA as percentage compared to vehicle control (0.5% DMSO)
Outline: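 Intracellular HBV DNA was quantified by qPCR and given as percent of vehicle (0.5% DMSO), grouped into letter ranges. Stably transfected HepG2.2.15 cells had 6 days of exposure to 1 μM compound, with medium and compound renewed after day 3.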

[2] = system: HBV; assay: Effect on intrahepatic HBV DNA levels in HepG2.2.15 cells (EC50); format: cell-based; conditions: Hepatitis B virus, 144 h, 6 days, intrahepatic HBV DNA by qPCR, read-out: Anti-HBV DNA (EC50)
Experimental: HepG2.2.15 cells were treated with compounds, at various concentrations in 10% FCS containing medium, at 37° C. for three days. After that the medium was removed and fresh medium containing the compound was added to the cells for another 3 days. After 6 days of treatment, intrahepatic HBV DNA from cell lysates were isolated. Then qPCR reaction of DNA was performed to measure total HBV DNA levels using specific primer set. The fifty-percent effective concentrations (EC50) for HBV DNA inhibition, relative to no drug controls, was determined using nonlinear fitting curve model. EC50 ranges for HBV DNA inhibition were as follows: A>0.3 μM, B=0.05-0.3 μM, C<0.05 μM (Table B).

[3] = Cytotoxicity (MTT) in HepG2.2.15 cells; format: cell-based; conditions: human, 6 days treatment, read-out: HepG2.1.15 cytotoxicity (CC50)
Experimental: HepG2.2.15 cells were seeded onto 96-well culture plate and allowed to adhere for 24 hours. The cells were treated with various concentrations of the compounds for 6 days. After treatment, the culture media were discarded and further incubated with serum-free media containing […] of 3-(4,5-dimethylthiazol-2-yl)-2,5-diphenyl tetrazolium bromide (MTT) for 2 hour. The resulting formazan crystals were completely dissolved in dimethyl sulfoxide (DMSO), and then measured absorbance at 570 nm using microplate reader. The concentrations of compounds producing 50% cell death (CC50) were determined from a fitting of concentration-response curve (% cell viability versus concentration) to a four-parameter equation.

[4] = molecular target: T1, HBV core protein (Cp149) (Hepatitis B virus genotype D subtype ayw, UniProt P03146); assay: HBV capsid assembly by size exclusion chromatography (SEC); format: biochemical; conditions: 50 μM compound, 15 μM Cp149, 16 hours at 21° C.
T1 construct: HBV core C-terminally truncated protein (HBV Cp149); made in house
T1 sequence (P03146 1-149): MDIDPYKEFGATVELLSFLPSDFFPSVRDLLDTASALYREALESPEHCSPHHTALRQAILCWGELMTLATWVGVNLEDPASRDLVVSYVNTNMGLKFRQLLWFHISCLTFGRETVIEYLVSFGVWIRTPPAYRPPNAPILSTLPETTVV

Row | Compound | activity at 1 µM [1] [%] | EC50 [2] [µM] | CC50 at 6 days [3] [µM] | Size of induced capsids based on SEC retention times [4]
1 | Cc1cc2[nH]ncc2cc1-c1ccc(C(=O)N2CC[C@H](C(=O)Nc3cc(F)c(F)c(F)c3)C2)[nH]1 [Example 122, (S)-1-(5-(6-methyl-1H-indazol-5-yl)-1H-pyrrole-2-carbonyl)-N-(3,4,5-trifluorophenyl) pyrrolidine-3-carboxamide] | < 45 | 0.05 to 0.3 | 10 to 25 | induced capsids similar in size to NVR 3-778
2 | Cc1cc(NC(=O)[C@H]2CCN(C(=O)c3ccc(-c4c(C(F)(F)F)n[nH]c4C)[nH]3)C2)ccc1F [Example 114] | < 45 | < 0.05 | 10 to 25 | induced capsids similar in size to NVR 3-778
3 | Cc1c(-c2ccc(C(=O)N3CC[C@H](C(=O)Nc4cc(F)c(F)c(F)c4)C3)[nH]2)ccc2[nH]ncc12 [Example 128, (S)-1-(5-(4-methyl-1H-indazol-5-yl)-1H-pyrrole-2-carbonyl)-N-(3,4,5-trifluorophenyl) pyrrolidine-3-carboxamide] | < 45 | 0.05 to 0.3 | 10 to 25 | induced capsids similar in size to NVR 3-778
4 | Cc1cc(NC(=O)[C@H]2CCN(C(=O)c3ccc(-c4ccnnc4)[nH]3)[C@H]2C)ccc1F [Example 102, (2S,3S)—N-(4-fluoro-3-methylphenyl)-2-methyl-1-(5-(pyridazin-4-yl)-1H-pyrrole-2-carbonyl) pyrrolidine-3-carboxamide] | < 45 | < 0.05 | > 25 | induced capsids similar in size to NVR 3-778
5 | Cc1cc(NC(=O)[C@H]2CCN(C(=O)c3ccc(-c4c(C)cn[nH]c4=O)[nH]3)[C@H]2C)ccc1F [Example 125, (2S,3S)—N-(4-fluoro-3-methylphenyl)-2-methyl-1-(5-(5-methyl-3-oxo-2,3-dihydropyridazin-4-yl)-1H-pyrrole-2-carbonyl)pyrrolidine-3-carboxamide] | < 45 | < 0.05 | > 25 | induced capsids similar in size to NVR 3-778
6 | Cc1ncnc(C)c1-c1ccc2c(Cl)c(C(=O)N3CC[C@H](C(=O)Nc4ccc(F)c(C#N)c4)[C@@H]3C)[nH]c2c1 [Example 138, (2S,3S)-1-(3-chloro-6-(4,6-dimethylpyrimidin-5-yl)-1H-indole-2-carbonyl)-N-(3-cyano-4-fluorophenyl)-2-methylpyrrolidine-3-carboxamide] | < 45 | 0.05 to 0.3 | 10 to 25 | capsid retention times between BAY 41-4109 and NVR 3-778
7 | Cc1ncnc(C)c1-c1ccc(C(=O)N2CC[C@H](C(=O)Nc3cc(F)c(F)c(F)c3)[C@@H]2C)[nH]1 [Example 111, (2S,3S)-1-(5-(4,6-dimethylpyrimidin-5-yl)-1H-pyrrole-2-carbonyl)-2-methyl-N-(3,4,5-trifluorophenyl)pyrrolidine-3-carboxamide] | < 45 | < 0.05 | < 10 | induced capsids similar in size to NVR 3-778
8 | C[C@H]1[C@@H](C(=O)Nc2ccc(F)c(F)c2)CCN1C(=O)c1ccc(-c2ccnnc2)[nH]1 [Example 110, (2S,3S)—N-(3,4-difluorophenyl)-2-methyl-1-(5-(pyridazin-4-yl)-1H-pyrrole-2-carbonyl) pyrrolidine-3-carboxamide] | < 45 | 0.05 to 0.3 | > 25 | induced capsids similar in size to NVR 3-778
9 | O=C(Nc1cc(F)c(F)c(F)c1)[C@H]1CCN(C(=O)c2cc3ccccc3[nH]2)C1 [Example 4, (S)-1-(1H-indole-2-carbonyl)-N-(3,4,5-trifluorophenyl)pyrrolidine-3-carboxamide] | < 45 | > 0.3 | > 25 | induced capsids similar in size to NVR 3-778
10 | Cc1cc(NC(=O)[C@H]2CCN(C(=O)c3[nH]c4ccccc4c3Cl)C2)ccc1F [Example 2, (S)-1-(3-chloro-1H-indole-2-carbonyl)-N-(4-fluoro-3-methylphenyl)pyrrolidine-3-carboxamide] | < 45 | < 0.05 | > 25 | capsid retention times between BAY 41-4109 and NVR 3-778
11 | Cc1cnnc(C)c1-c1ccc(C(=O)N2CC[C@H](C(=O)Nc3ccc(F)c(F)c3)C2)[nH]1 [Example 115, (S)—N-(3,4-difluorophenyl)-1-(5-(3,5-dimethylpyridazin-4-yl)-1H-pyrrole-2-carbonyl)pyrrolidine-3-carboxamide] | < 45 | 0.05 to 0.3 | > 25 | induced capsids similar in size to NVR 3-778
12 | Cc1cc(NC(=O)[C@H]2CCN(C(=O)c3ccc(-c4c(C)cc[nH]c4=O)[nH]3)[C@H]2C)ccc1F [Example 120, (2S,3S)—N-(4-fluoro-3-methylphenyl)-2-methyl-1-(5-(4-methyl-2-oxo-1,2-dihydropyridin-3-yl)-1H-pyrrole-2-carbonyl)pyrrolidine-3-carboxamide] | < 45 | 0.05 to 0.3 | > 25 | induced capsids similar in size to NVR 3-778
13 | C[C@H]1[C@@H](C(=O)Nc2cc(F)c(F)c(F)c2)CCN1C(=O)c1ccc(Cl)[nH]1 [Example 60, (2S,3S)-1-(5-chloro-1H-pyrrole-2-carbonyl)-2-methyl-N-(3,4,5-trifluorophenyl)pyrrolidine-3-carboxamide] | < 45 | 0.05 to 0.3 | > 25 | induced capsids similar in size to NVR 3-778
14 | Cc1cc(NC(=O)[C@H]2CCN(C(=O)c3ccc(-c4c(C)n[nH]c4C)[nH]3)C2)ccc1F [Example 101, (S)-1-(5-(3,5-dimethyl-1H-pyrazol-4-yl)-1H-pyrrole-2-carbonyl)-N-(4-fluoro-3-methylphenyl)pyrrolidine-3-carboxamide] | < 45 | 0.05 to 0.3 | > 25 | induced capsids similar in size to NVR 3-778
15 | Cc1[nH]nc(C(F)(F)F)c1-c1ccc(C(=O)N2CC[C@H](C(=O)Nc3ccc(F)c(C#N)c3)[C@@H]2C)[nH]1 [Example 113, (2S,3S)—N-(3-cyano-4-fluorophenyl)-2-methyl-1-(5-(5-methyl-3-(trifluoromethyl)-1H-pyrazol-4-yl)-1H-pyrrole-2-carbonyl)pyrrolidine-3-carboxamide] | < 45 | < 0.05 | 10 to 25 | induced capsids similar in size to NVR 3-778
16 | Cc1cc2[nH]ncc2cc1-c1ccc(C(=O)N2CC[C@H](C(=O)Nc3ccc(F)c(C#N)c3)C2)[nH]1 [Example 123, (S)—N-(3-cyano-4-fluorophenyl)-1-(5-(6-methyl-1H-indazol-5-yl)-1H-pyrrole-2-carbonyl) pyrrolidine-3-carboxamide] | < 45 | 0.05 to 0.3 | 10 to 25 | induced capsids similar in size to NVR 3-778
